Test in all cases: MTT growth inhibition assay (72 h)
Common to all, as to type: cell-based, human
In general terms: Tetrazolium dyes change colour on reduction, which living cells bring about.

In assay [1] the test system is A2780 (ovary) cells. The text has this: (§1) Each BBQ analogue, 2-14 was screened for their growth inhibition ability (GI50) in a broad panel of cancer cell lines and a non-cancer breast cell line (MCF10A), using the MTT growth inhibition assay (Table 1) ([Baker et al., 2021b]). The cancer panel comprised HT29 (colorectal), U87 (brain), SJ-G2 (brain), A2780 (ovary), Du145 (prostate), BE2-C (neuronal), MIA (pancreas), H460 (lung, ER+), A431 (vulva, ER+ (estrogen receptor positive)), and a wide selection of breast cancer cell lines with varying receptor status including MCF-7 (ER + luminal A), T47D (ER/PR+ (progesterone receptor positive)luminal A), ZR-75-1 (ER/PR + luminal A), BT-474 (ER/PR/HER2+ luminal B), SKBR-3 (HER2+), MDA-MB-468, BT20, and MDA-MB-231 (basal, triple negative (TN) for ER, PR, and HER2).
(§2) Stock solutions were prepared as follows and stored as 20 mM DMSO solutions at −20 °C. All cell lines were cultured in a humidified atmosphere 5% CO2 at 37 °C. The cancer cell lines were maintained in Dulbecco’s modified Eagle’s medium (DMEM) (Trace Biosciences, Australia) supplemented with 10% foetal bovine serum (FBS), 10 mM sodium bicarbonate, penicillin (100 IU/mL), streptomycin (100 μg/mL), and glutamine (4 mM). The non-cancer MCF10A cell line was cultured in DMEM:F12 (1:1) cell culture media, 5% heat inactivated horse serum, supplemented with penicillin (50 IU/mL), streptomycin (50 μg/mL), 20 mM Hepes, L-glutamine (2 mM), epidermal growth factor (20 ng/mL), hydrocortisone (500 ng/mL), cholera toxin (100 ng/mL), and insulin (10 μg/mL). The AhR reporter cell line HT29-Lucia™ (Invivogen, United States) was maintained in DMEM supplemented with 10% heat inactivated FBS, L-glutamine (2 mM), penicillin (100 IU/mL), streptomycin (100 μg/mL), 100 μg/mL Normocin™, and 100 μg/mL of the selective antibiotic Zeocin™. All cell lines were purchased from the American Type Culture Collection (ATCC), except for A2780 and A431 which were from the European Collection of Authenticated Cell Cultures (ECACC), and SJ-G2 cell line which was from Dr Mary Danks, St Jude Children’s Research hospital, Memphis, TN.
(§3) Cells in logarithmic growth were transferred to 96-well plates. Cytotoxicity was determined by plating cells in duplicate in 100 μL medium at a density of 2,500–4,000 cells/well in 96 well plates. On day 0, (24 h after plating) when the cells were in logarithmic growth 100 μL medium with or without the test agent was added to each well. After 72 h drug exposure growth inhibitory effects were evaluated using the MTT (3-[4,5-dimethylthiazol-2-yl]-2,5-diphenyltetrazolium bromide) assay with absorbance read at 540 nm. An eight-point dose response curve was produced, using MS Excel software. From these dose-response curves, the GI50 value was calculated, representing the drug concentration at which cell growth is 50% inhibited based on the difference between the optical density values on day 0 and those at the end of drug exposure ([Bradshaw et al., 2008]; [Zhang et al., 2009]). Each data point was conducted in duplicate and the mean ± S.E.M. calculated from four to five replicates (n = 4 or 5), which were performed on separate occasions and separate cell line passages. Where shown, significant test results were determined using T-test analysis at p < 0.01 and p < 0.05 with a two tail distribution.

The test system of assay [2] is A431 (vulva/skin) cells.
From the text: as §1, §2, §3

Assay [3] deals with BE2-C (neuronal) cells. The conditions noted are these: Neuron.
From the text: as §1, §2, §3

The subject of assay [4] is BT20 breast cancer cells.
From the text: as §1, §2, §3

Assay [5] relates to BT474 breast cancer cells.
From the text: as §1, §2, §3

In assay [6] the test system is Du145 (prostate) cells.
From the text: as §1, §2, §3

The test system of assay [7] is H460 (lung) cells.
From the text: as §1, §2, §3

Assay [8] concerns HT29 (colorectal) cells.
From the text: as §1, §2, §3

Assay [9] concerns MCF-7 breast cancer cells.
From the text: as §1, §2, §3

For assay [10], the system named is MCF10A normal breast cells.
From the text: as §1, §2, §3

Assay [11] concerns MDA-MB-231 breast cancer cells. As to conditions: MDA-MB-231, Breast (TN).
From the text: as §1, §2, §3

Assay [12] deals with MDA-MB-468 breast cancer cells. The conditions noted are these: MDA-MB-468, Breast (TN).
From the text: as §1, §2, §3

The test system of assay [13] is MIA (pancreas) cells.
From the text: as §1, §2, §3

Assay [14] has as its system SJ-G2 (brain) cells. As to conditions: SJ-G2, Brain (GBM).
From the text: as §1, §2, §3

For assay [15], the system named is SKBR3 breast cancer cells.
From the text: as §1, §2, §3

For assay [16], the system named is T47D breast cancer cells. As to conditions: Breast (ER/PR).
From the text: as §1, §2, §3

Assay [17] concerns U87 (brain) cells. As to conditions: U87, Brain (GBM).
From the text: as §1, §2, §3

The subject of assay [18] is ZR-75-1 breast cancer cells. As to conditions: ZR-75-1, Breast (ER/PR).
From the text: as §1, §2, §3

Where [19] appears, read: Homo sapiens, A-431, A431, Skin (ER).
Setting [20] is: Homo sapiens, BT-20, BT20, Breast (TN).
The mark [21] stands for this setting: Homo sapiens, BT-474, BT474, Breast (ER/PR/HER2).
The mark [22] stands for this setting: Homo sapiens, NCI-H460, H460, Lung (ER).
The mark [23] stands for this setting: Homo sapiens, HT-29, HT29, Colon.
[24] abbreviates: Homo sapiens, MCF7, MCF-7, Breast (ER).
[25] abbreviates: Homo sapiens, SK-BR-3, SKBR3, Breast (HER2).

Where two headings read alike, the source gives them in different places.

For “9-Methyl-7H-benzo[de]benzo[4,5]imidazo[2,1-a]isoquinolin-7-one (8a) and 12-methyl-7H-benzo[de]benzo[4,5]imidazo[2,1-a]isoquinolin-7-one (8b) [Compound 8]”, the GI50 in assay [1] amounted to 11 ± 0.58 µM; in assay [2] (A431, Skin (ER)), 0.56 ± 0.14 µM; in [3], 15 ± 10 µM; in assay [4] (BT20, Breast (TN)) it was 1.4 ± 0.8 µM; in [5] (BT474, Breast (ER/PR/HER2)), 4.6 ± 2.7 µM; in assay [6], 38 ± 6.9 µM. For the same compound, the GI50 in assay [7] (H460, Lung (ER)) was determined as 27 ± 6.7 µM; in [8] (HT29, Colon), 3.7 ± 0.69 µM; in assay [9] (MCF-7, Breast (ER)) it was 2.8 ± 0.61 µM; in assay [10] it was 2 ± 1.3 µM; in assay [11] it was 8.2 ± 3.3 µM; in [12], 0.056 ± 0.024 µM. The GI50 in assay [13] amounted to 20 ± 10 µM; in assay [14], 24 ± 8.4 µM; in assay [15] (SKBR3, Breast (HER2)) it was 0.27 ± 0.027 µM; in assay [16] it was 0.8 ± 0.11 µM; in [17] it was 38 ± 2.5 µM; in assay [18] it was 0.59 ± 0.38 µM.

On to “10-Methyl-7H-benzo[de]benzo[4,5]imidazo[2,1-a]isoquinolin-7-one (7a) and 11-methyl-7H-benzo[de]benzo[4,5]imidazo[2,1-a]isoquinolin-7-one (7b) [Compound 7]”, for which the GI50 in assay [1] is 5.2 ± 0.63 µM; in assay [2] (A431, Skin (ER)), 4.8 ± 0.7 µM; in assay [3], 4.9 ± 0.09 µM; in assay [4] (BT20, Breast (TN)), 5.2 ± 2 µM; in [5] (BT474, Breast (ER/PR/HER2)), more than 50 µM; in assay [6] it was 37 ± 7.8 µM. For the same compound, the GI50 in assay [7] (H460, Lung (ER)) worked out at 45 ± 8 µM; in [8] (HT29, Colon), 5 ± 0.07 µM; in assay [9] (MCF-7, Breast (ER)), 3.6 ± 0.4 µM; in [10], 4.7 ± 0.12 µM; in [11], 25 ± 7.1 µM; in assay [12], 0.35 ± 0.13 µM. The 50% growth inhibitory concentration (GI50) was 8.1 ± 0.97 µM in [13]; more than 50 µM in assay [14]; 1.2 ± 0.93 µM in assay [15] (SKBR3, Breast (HER2)); 3.1 ± 0.17 µM in assay [16]; 17 ± 2.7 µM in assay [17]; 0.19 ± 0.045 µM in assay [18].

Regarding `O=c1c2ccccc2cc2[nH]c3ccccc3n12` [Compound 12, Benzo[4,5]imidazo[1,2-b]isoquinolin-11(5H)-one], the GI50 was 3 ± 2.1 µM in assay [1] (Homo sapiens); 0.48 ± 0.1 µM in [2] (setting [19]); 0.24 ± 0.079 µM in assay [3] (Homo sapiens, BE(2)-C); 0.16 ± 0.048 µM in assay [4] (setting [20]); more than 50 µM in assay [5] (setting [21]); more than 50 µM in assay [6] (Homo sapiens, DU-145). For the same compound, the GI50 in [7] (setting [22]) is more than 50 µM; in assay [8] (setting [23]), 0.21 ± 0.056 µM; in [9] (setting [24]), 0.12 ± 0.05 µM; in assay [10] (Homo sapiens, MCF-10A), 0.54 ± 0.07 µM; in [11] (Homo sapiens), more than 50 µM; in assay [12] (Homo sapiens), 0.141 ± 0.074 µM. In addition, the GI50 in assay [13] (Homo sapiens) is 0.62 ± 0.16 µM; in assay [14] (Homo sapiens) it was 43 ± 10.3 µM; in assay [15] (setting [25]) it was 0.2 ± 0.071 µM; in [16] (Homo sapiens) it was 0.164 ± 0.083 µM; in assay [17] (Homo sapiens), more than 50 µM; in [18] (Homo sapiens), 0.17 ± 0.023 µM.

As for `O=c1c2cccc3cccc(c4n1Cc1ccccc1N=4)c32` [Compound 13, 7H,9H-benzo[4,5]isoquinolino[1,2-b]quinazolin-7-one], the GI50 in assay [1] (Homo sapiens) was more than 50 µM; in assay [2] (setting [19]), 43 ± 4.4 µM; in assay [3] (Homo sapiens, BE(2)-C) it was 42 ± 1.5 µM; in assay [4] (setting [20]), more than 50 µM; in assay [5] (setting [21]) it was more than 50 µM; in assay [6] (Homo sapiens, DU-145), more than 50 µM. Further, the concentration for 50% growth inhibition (GI50) was more than 50 µM in assay [7] (setting [22]); more than 50 µM in assay [8] (setting [23]); 32 ± 1.9 µM in assay [9] (setting [24]); 38 ± 1.2 µM in assay [10] (Homo sapiens, MCF-10A); more than 50 µM in [11] (Homo sapiens); 36 ± 3.8 µM in assay [12] (Homo sapiens). Further, the GI50 in assay [13] (Homo sapiens) is 38 ± 1 µM; in assay [14] (Homo sapiens), 56 ± 3.7 µM; in assay [15] (setting [25]), 47 ± 2.7 µM; in assay [16] (Homo sapiens), 40 ± 3.3 µM; in [17] (Homo sapiens), more than 50 µM; in assay [18] (Homo sapiens), 35 ± 1 µM.

In general, GI50 refers to the concentration at which growth is held to half of that of the control.

The values are drawn from PMC11224556, “Next-generation of BBQ analogues that selectively target breast cancer” (Frontiers in Chemistry, 2024).
